What was measured:
human recombinant HDAC1 = target: T1, human recombinant HDAC1 (Homo sapiens, UniProt Q13547); assay: HDAC1 enzyme activity inhibition assay (in vitro, fluorimetric); type: biochemical; details: human recombinant HDAC1, fluorimetric kit, 30° C. 60 minutes
T1 construct: purchased Enzo Life Science BML-SE456
Method in brief: (§1)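 Human recombinant enzyme (0.3 μg for HDAC1) reacted with 10 μM Fluor de Lys-SIRT1 substrate and 5-fold compound dilutions at 30 °C for 60 min, then developer for 30 min. Fluorescence read at Ex 360/Em 460; IC50 calculated. HDAC6 run by the same protocol.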

human recombinant HDAC6 = target: T2, human recombinant HDAC6 (Homo sapiens, UniProt Q9UBN7); assay: HDAC6 enzyme activity inhibition assay (in vitro, fluorimetric); type: biochemical; details: for HDAC6 selectivity (fold): HDAC6 selectivity over HDAC1; for IC50: human recombinant HDAC6, fluorimetric kit, same protocol as HDAC1
T2 construct: purchased Calbiochem 382180
T2 sequence (Q9UBN7 1-1215): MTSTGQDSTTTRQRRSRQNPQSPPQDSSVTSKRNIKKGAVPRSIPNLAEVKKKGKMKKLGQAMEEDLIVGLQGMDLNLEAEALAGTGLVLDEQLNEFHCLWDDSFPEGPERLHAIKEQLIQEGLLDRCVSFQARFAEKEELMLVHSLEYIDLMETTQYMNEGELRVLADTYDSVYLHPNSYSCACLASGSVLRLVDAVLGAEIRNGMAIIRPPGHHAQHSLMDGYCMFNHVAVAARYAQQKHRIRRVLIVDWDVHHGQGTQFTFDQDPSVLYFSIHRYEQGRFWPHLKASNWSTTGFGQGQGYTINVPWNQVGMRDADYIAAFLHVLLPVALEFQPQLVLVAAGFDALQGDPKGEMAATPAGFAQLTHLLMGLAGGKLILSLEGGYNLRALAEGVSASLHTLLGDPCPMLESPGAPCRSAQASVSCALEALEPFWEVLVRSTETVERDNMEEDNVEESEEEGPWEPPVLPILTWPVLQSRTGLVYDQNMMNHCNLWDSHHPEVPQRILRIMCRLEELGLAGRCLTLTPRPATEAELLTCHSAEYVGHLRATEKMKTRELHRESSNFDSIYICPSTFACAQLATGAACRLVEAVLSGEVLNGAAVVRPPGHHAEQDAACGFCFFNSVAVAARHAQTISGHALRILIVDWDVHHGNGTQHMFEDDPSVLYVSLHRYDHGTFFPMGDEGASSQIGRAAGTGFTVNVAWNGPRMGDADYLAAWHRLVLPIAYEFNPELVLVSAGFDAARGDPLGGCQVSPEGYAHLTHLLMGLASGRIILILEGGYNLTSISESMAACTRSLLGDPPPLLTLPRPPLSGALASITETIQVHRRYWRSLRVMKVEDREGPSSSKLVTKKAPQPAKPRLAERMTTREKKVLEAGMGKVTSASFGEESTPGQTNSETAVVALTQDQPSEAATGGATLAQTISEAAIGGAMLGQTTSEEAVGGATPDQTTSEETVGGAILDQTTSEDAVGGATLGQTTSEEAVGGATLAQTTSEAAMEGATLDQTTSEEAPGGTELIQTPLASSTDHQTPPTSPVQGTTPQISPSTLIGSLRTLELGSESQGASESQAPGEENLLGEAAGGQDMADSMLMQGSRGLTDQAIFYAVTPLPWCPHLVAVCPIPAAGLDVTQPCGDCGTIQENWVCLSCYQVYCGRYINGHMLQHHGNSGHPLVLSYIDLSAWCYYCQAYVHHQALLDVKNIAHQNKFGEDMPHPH
Method in brief: as §1

T1 sequence (Q13547 whole entry): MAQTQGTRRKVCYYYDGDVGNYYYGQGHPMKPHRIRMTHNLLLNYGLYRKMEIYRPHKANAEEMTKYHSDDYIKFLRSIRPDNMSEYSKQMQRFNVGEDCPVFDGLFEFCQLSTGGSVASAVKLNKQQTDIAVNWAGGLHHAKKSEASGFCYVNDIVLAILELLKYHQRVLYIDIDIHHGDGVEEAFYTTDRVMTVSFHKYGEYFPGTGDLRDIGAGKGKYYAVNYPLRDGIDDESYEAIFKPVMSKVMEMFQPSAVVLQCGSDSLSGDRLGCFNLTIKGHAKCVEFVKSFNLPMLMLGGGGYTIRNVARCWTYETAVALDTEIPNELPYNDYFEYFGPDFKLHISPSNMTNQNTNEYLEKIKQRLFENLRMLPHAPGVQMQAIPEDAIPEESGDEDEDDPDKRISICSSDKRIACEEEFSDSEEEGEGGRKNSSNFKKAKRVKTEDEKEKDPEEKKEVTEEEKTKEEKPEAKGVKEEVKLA

Row | IC50 (human recombinant HDAC1) | HDAC6 selectivity (fold) (human recombinant HDAC6) | IC50 (human recombinant HDAC6) | SMILES
1 | 12500 nM | 121 fold | 103 nM | CC(=O)N1CC=C(c2ccccc2CN2[C@H](C)CN(Cc3ccc(C(=O)NO)cc3)C[C@@H]2C)CC1 [Compound 482, 4-(((3R,5S)-4-(2-(1-acetyl-1,2,3,6-tetrahydropyridin-4-yl)benzyl)-3,5-dimethylpiperazin-1-yl)methyl)-N-hydroxybenzamide]
2 | > 10000 nM | >35 fold | 280 nM | C[C@@H]1CN(CC2CCC(C(=O)NO)CC2)C[C@H](C)N1Cc1ccccc1 (stereo partly drawn) [Compound 822, 4-(((3R,5S)-4-benzyl-3,5-dimethylpiperazin-1-yl)methyl)-N-hydroxycyclohexane-1-carboxamide]
3 | > 10000 nM | >11 fold | 860 nM | C[C@@H]1CN(Cc2c[nH]c3cc(C(=O)NO)ccc23)C[C@H](C)N1Cc1ccccc1 [Compound 520, 3-(((3R,5S)-4-benzyl-3,5-dimethylpiperazin-1-yl)methyl)-N-hydroxy-1H-indole-6-carboxamide]
4 | 900 nM | 6 fold | 142 nM | CCN(CC)Cc1cccc(CN2C[C@@H](C)N(Cc3ccc(/C=C/C(=O)NO)cc3)[C@@H](C)C2)c1 [Compound 476, (E)-3-(4-(((2S,6R)-4-(3-((diethylamino)methyl)benzyl)-2,6-dimethylpiperazin-1-yl)methyl)phenyl)-N-hydroxyacrylamide]
5 | > 10000 nM | >11 fold | 880 nM | C[C@@H]1CN(Cc2ccc(C(=O)NO)c(O)c2)C[C@H](C)N1Cc1ccccc1 [Compound 652, 4-(((3R,5S)-4-benzyl-3,5-dimethylpiperazin-1-yl)methyl)-N,2-dihydroxybenzamide]
6 | 4700 nM | 6 fold | 843 nM | C[C@@H]1CN(Cc2ccccc2-c2ccoc2)C[C@H](C)N1Cc1ccc(C(=O)NO)cc1 [Compound 348, 4-(((2S,6R)-4-(2-(furan-3-yl)benzyl)-2,6-dimethylpiperazin-1-yl)methyl)-N-hydroxybenzamide]
7 | 5600 nM | 71 fold | 78 nM | CCN(CC)CC(C)NCc1cccc(C(=O)N2[C@H](C)CN(Cc3ccc(C(=O)NO)cc3)C[C@@H]2C)c1 (stereo partly drawn) [Compound 440, 4-(((3R,5S)-4-(3-(((1-(diethylamino)propan-2-yl)amino)methyl)benzoyl)-3,5-dimethylpiperazin-1-yl)methyl)-N-hydroxybenzamide]

The next lines start with the molecule.

Row | SMILES | IC50 (human recombinant HDAC1) | HDAC6 selectivity (fold) (human recombinant HDAC6) | IC50 (human recombinant HDAC6)
8 | C[C@@H]1CN(C(=O)c2ccco2)C[C@H](C)N1Cc1ccc(C(=O)NO)cc1 [Compound 115, 4-(((2S,6R)-4-(furan-2-carbonyl)-2,6-dimethylpiperazin-1-yl)methyl)-N-hydroxybenzamide] | 3200 nM | 18 fold | 181 nM
9 | C[C@@H]1CN(C(=O)c2cccc(C3=CCC(C)(C)CC3)c2)C[C@H](C)N1Cc1ccc(C(=O)NO)cc1 [Compound 263, 4-(((2S,6R)-4-(4′,4′-dimethyl-2′,3′,4′,5′-tetrahydro-[1,1′-biphenyl]-3-carbonyl)-2,6-dimethylpiperazin-1-yl)methyl)-N-hydroxybenzamide] | 6800 nM | <7 fold | > 1000 nM
10 | C[C@@H]1CN(Cc2ccc(C(=O)NO)cc2)C[C@H](C)N1Cc1ccccc1-c1ccncc1 [Compound 329, 4-(((3R,5S)-3,5-dimethyl-4-(2-(pyridin-4-yl)benzyl)piperazin-1-yl)methyl)-N-hydroxybenzamide] | 14600 nM | 280 fold | 52 nM
11 | Cc1cccc(NC(=S)N2C[C@@H](C)N(Cc3ccc(C(=O)NO)cc3)[C@@H](C)C2)c1 [Compound 189, 4-(((2S,6R)-2,6-dimethyl-4-(m-tolylcarbamothioyl)piperazin-1-yl)methyl)-N-hydroxybenzamide] | 3000 nM | 10 fold | 303 nM
12 | C[C@@H]1CN(Cc2ccc(N(C)C)cc2)C[C@H](C)N1Cc1ccc(C(=O)NO)cc1 [Compound 299, 4-(((2S,6R)-4-(4-(dimethylamino)benzyl)-2,6-dimethylpiperazin-1-yl)methyl)-N-hydroxybenzamide] | 1200 nM | 5 fold | 243 nM
13 | COc1cccc(NC(=O)N2C[C@@H](C)N(Cc3ccc(C(=O)NO)cc3)[C@@H](C)C2)c1 [Compound 164, (3R,5S)-4-(4-(hydroxycarbamoyl)benzyl)-N-(3-methoxyphenyl)-3,5-dimethylpiperazine-1-carboxamide] | 500 nM | 4 fold | 135 nM
14 | C[C@@H]1CN(C(=O)c2cccs2)C[C@H](C)N1Cc1ccc(C(=O)NO)cc1 [Compound 114, 4-(((2S,6R)-2,6-dimethyl-4-(thiophene-2-carbonyl)piperazin-1-yl)methyl)-N-hydroxybenzamide] | 2400 nM | 13 fold | 185 nM
15 | C[C@@H]1CN(Cc2ccccc2)C[C@H](C)N1Cc1ccc(C(=O)NO)c(F)c1 [Compound 174, 4-(((2S,6R)-4-benzyl-2,6-dimethylpiperazin-1-yl)methyl)-2-fluoro-N-hydroxybenzamide] | > 10000 nM | >103 fold | 97 nM
16 | C[C@@H]1CN(C(=O)c2ccc(Cl)cc2)C[C@H](C)N1Cc1ccc(C(=O)NO)cc1 [Compound 106, 4-(((2S,6R)-4-(4-chlorobenzoyl)-2,6-dimethylpiperazin-1-yl)methyl)-N-hydroxybenzamide] | 7300 nM | 61 fold | 119 nM
17 | C[C@@H]1CN(Cc2ccc(C(=O)NO)cc2)C[C@H](C)N1Cc1cccc(C2=CCOCC2)c1 [Compound 346, 4-(((3R,5S)-4-(3-(3,6-dihydro-2H-pyran-4-yl)benzyl)-3,5-dimethylpiperazin-1-yl)methyl)-N-hydroxybenzamide] | 8300 nM | 332 fold | 25 nM
18 | C[C@@H]1CN(C(=O)Cc2cccc(C3=CCC(C)(C)CC3)c2)C[C@H](C)N1Cc1ccc(C(=O)NO)cc1 [Compound 253, 4-(((2S,6R)-4-(2-(4′,4′-dimethyl-2′,3′,4′,5′-tetrahydro-[1,1′-biphenyl]-3-yl)acetyl)-2,6-dimethylpiperazin-1-yl)methyl)-N-hydroxybenzamide] | 22600 nM | 15 fold | 1540 nM
19 | C[C@@H]1CN(Cc2ccc(C(=O)NO)cc2)C[C@H](C)N1C(=O)c1ccccc1-c1ccoc1 [Compound 284, 4-(((3R,5S)-4-(2-(furan-3-yl)benzoyl)-3,5-dimethylpiperazin-1-yl)methyl)-N-hydroxybenzamide] | 5700 nM | 84 fold | 68 nM
20 | C[C@@H]1CN(Cc2ccc(C(=O)NO)cc2)C[C@H](C)N1Cc1cccc(-c2cccnc2)c1 [Compound 344, 4-(((3R,5S)-3,5-dimethyl-4-(3-(pyridin-3-yl)benzyl)piperazin-1-yl)methyl)-N-hydroxybenzamide] | 5800 nM | 481 fold | 12 nM
21 | C[C@@H]1CN(C(=O)Nc2ccc3c(c2)CCO3)C[C@H](C)N1Cc1ccc(C(=O)NO)cc1 [Compound 187, (3R,5S)-N-(2,3-dihydrobenzofuran-5-yl)-4-(4-(hydroxycarbamoyl)benzyl)-3,5-dimethylpiperazine-1-carboxamide] | 1100 nM | 5 fold | 239 nM
22 | CCN1CC=C(c2ccccc2CN2[C@H](C)CN(Cc3ccc(C(=O)NO)cc3)C[C@@H]2C)CC1 [Compound 485, 4-(((3R,5S)-4-(2-(1-ethyl-1,2,3,6-tetrahydropyridin-4-yl)benzyl)-3,5-dimethylpiperazin-1-yl)methyl)-N-hydroxybenzamide] | 14700 nM | 101 fold | 145 nM

From patent US10287255B2, “Compounds as histone deacetylase 6 inhibitors and pharmaceutical compositions comprising the same” (CHONG KUN DANG PHARMACEUTICAL CORP., priority 2014, dated 2019)
